{"source": "ChEMBL document CHEMBL5726478", "about": "“Histone demethylase inhibitors” (2019)", "target": "T1, Lysine-specific demethylase 4C (Homo sapiens, UniProt Q9H3R0)", "T1 sequence (Q9H3R0 whole entry)": "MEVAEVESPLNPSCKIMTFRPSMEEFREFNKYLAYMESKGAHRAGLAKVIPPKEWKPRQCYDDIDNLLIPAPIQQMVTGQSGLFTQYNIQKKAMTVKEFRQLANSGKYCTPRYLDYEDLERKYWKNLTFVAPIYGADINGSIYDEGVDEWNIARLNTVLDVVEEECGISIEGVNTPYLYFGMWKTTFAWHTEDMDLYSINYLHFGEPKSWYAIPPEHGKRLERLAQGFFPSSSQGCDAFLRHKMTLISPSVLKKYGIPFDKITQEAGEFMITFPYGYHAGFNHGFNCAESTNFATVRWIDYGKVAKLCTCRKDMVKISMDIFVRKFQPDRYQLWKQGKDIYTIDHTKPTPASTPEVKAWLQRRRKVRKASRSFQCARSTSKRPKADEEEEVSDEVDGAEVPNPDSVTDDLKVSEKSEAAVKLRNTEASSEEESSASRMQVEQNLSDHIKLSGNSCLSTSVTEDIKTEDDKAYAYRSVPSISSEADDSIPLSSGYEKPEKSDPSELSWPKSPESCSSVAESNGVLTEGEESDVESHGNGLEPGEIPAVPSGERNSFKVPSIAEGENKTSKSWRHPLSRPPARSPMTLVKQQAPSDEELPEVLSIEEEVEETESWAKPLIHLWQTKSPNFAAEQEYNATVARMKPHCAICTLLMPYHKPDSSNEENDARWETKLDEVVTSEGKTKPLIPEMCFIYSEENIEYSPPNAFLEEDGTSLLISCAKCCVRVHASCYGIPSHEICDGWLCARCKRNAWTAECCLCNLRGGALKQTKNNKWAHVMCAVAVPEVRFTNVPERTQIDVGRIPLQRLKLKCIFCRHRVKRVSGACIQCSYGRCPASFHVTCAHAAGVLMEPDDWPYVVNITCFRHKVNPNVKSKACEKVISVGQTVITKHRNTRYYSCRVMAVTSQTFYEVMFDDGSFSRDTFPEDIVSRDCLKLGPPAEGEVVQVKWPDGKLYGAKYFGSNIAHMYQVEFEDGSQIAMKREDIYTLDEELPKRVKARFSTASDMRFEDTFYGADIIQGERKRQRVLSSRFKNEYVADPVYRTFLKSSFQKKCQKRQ", "assay": "JMJD2C Assay: The ability of test compounds to inhibit the activity of JMJD2C was determined in 384-well plate-format under the following reaction conditions: 0.3 nM JMJD2C, 300 nM H3K9me3-biotin labeled peptide (Anaspec cat #64360), 2 μM alpha-ketoglutaric acid in assay buffer of 50 mM HEPES, pH 7.3, 0.005% Brij35, 0.5 mM TCEP, 0.2 mg/ml BSA, 50 μM sodium L-ascorbate, and 2 μM ammonium iron(II) sulfate. Reaction product was determined quantitatively by TR-FRET after the addition of detection reagent Phycolink Streptavidin-allophycocyanin (Prozyme) and Europium-anti-di-methylated histone H3 lysine 9 (H3K9me2) antibody (PerkinElmer) in the presence of 5 mM EDTA in LANCE detection buffer (PerkinElmer) at a final concentration of 50 nM and 1 nM, respectively.The assay reaction was initiated by the following: 2 μl of the mixture of 900 nM H3K9me3-biotin labeled peptide and 6 μM alpha-ketoglutaric acid with 2 μl of 11-point serial diluted inhibitor in 3% DMSO were added to each well of the plate, followed by the addition of 2 μl of 0.9 nM JMJD2C to initiate the reaction. The reaction mixture was incubated at room temperature for 30 min, and terminated by the addition of 6 μl of 5 mM EDTA in LANCE detection buffer containing 100 nM Phycolink Streptavidin-allophycocyanin and 2 nM Europium-anti-H3K9me2 antibody. […]"}
{"compound": "CC(C)N1CCN(c2cccc(N(C)c3ccc(Oc4nc(O)c5ccncc5n4)cc3)c2)CC1", "values": [{"measurement": "IC50", "result": "< 100", "unit": "nM"}]}
